From patent publication US20240027428A1, “METHOD FOR BUILDING CO-CULTURE MODEL FOR CACO-2/RAW-264.7 CELLS INDUCED BY LIPOPOLYSACCHARIDES AND APPLICATION OF CO-CULTURE MODEL” (ZHEJIANG UNIVERSITY OF TECHNOLOGY, priority 2022, published 2024)

Key:
[1] = system: Caco-2 cells; test: Transport tests for Lucifer yellow across Caco-2 monolayer in Transwell; type: in vitro ADME; conditions: 20 μg/mL Lucifer yellow, AP to BL, Caco-2 cultured 21 days
Method: Drawing of a standard curve for Lucifer yellow: 0.005 μg/mL, 0.01 μg/mL, 0.025 μg/mL, 0.05 μg/mL, 0.1 μg/mL, and 0.25 μg/mL of standard solutions for Lucifer yellow were prepared, the fluorescence intensities (an excitation wavelength: 427 nm, and an emission wavelength: 536 nm) of the standard solutions for Lucifer yellow were measured with a fluorescence spectrophotometer, and linear regression was performed with the fluorescence intensity as an ordinate and the concentration ([…]) as an abscissa. A standard curve was drawn.
Transport tests for Lucifer yellow: Caco-2 cells grew to 21 days in a Transwell, and then a culture medium was sucked and discarded. A preheated HBSS was added to both an AP side and a BL side for cleaning twice and was sucked and discarded, and then a preheated HBSS was added to perform culture under the conditions of 37° C. and 5% CO2 for 20 min. […] Under the condition of Ex=427 nm and Em=536 nm, the fluorescence intensity was measured according to a standard curve and a transport formula. A concentration and permeability coefficient of a transport solution for the Lucifer yellow CH on the BL side were calculated. […]

[2] = system: Caco-2 cells; test: Effect of concentration on transport in a co-culture model; type: in vitro ADME; conditions: at 1 h; not saturated
Method: (§1) Cell co-culture: Caco-2 cells were inoculated onto a 6-well Transwell plate at a density of 1×10^5 cells/well. A culture medium was changed once every 1-2 days in 21 consecutive days. RAW-264.7 cells were inoculated onto a side wall of a substrate at a density of 1×10^5 cells/well, and were cultured in 5% carbon dioxide at 37° C. for 48 h, to promote obvious adhesion of the cells to the side wall of the substrate. After 48 h, the culture medium was replaced with a serum-free DMEM. It was intended to evaluate the absorption of C3G liposomes in a co-culture model.
Effect of concentration on uptake in a co-culture model: 0.02 mg/ml, 0.04 mg/ml, […], 0.08 mg/ml, and 0.1 mg/ml of C3G and C3G NL solutions were prepared, transport from an AP side to a BL side and transport from the BL side to the AP side were evaluated, 0.1 ml of a sample was added on the AP side, 0.6 ml of a sample was added on the BL side, three wells were provided, […], a culture medium was discarded after culture, and uptake was stopped using an HBSS. The content of the sample on the BL side was determined with HPLC.

[3] = system: Caco-2 cells; test: Effect of time on uptake in a co-culture model; type: in vitro ADME; conditions: 0.2 mg/mL, 0-6 h
Method: as §1
Effect of time on uptake in a co-culture model: 0.2 mg/mL of a C3G and C3G NL solution was prepared with a DMEM, 0.1 ml of a sample solution was added on an AP side, 0.6 mL of a DMEM was added on an BL side, culture was performed in an incubator at 37° C. for 1 h, 2 h, 3 h, 4 h, 5 h, and 6 h, three wells were provided at each time point, a drug-containing buffer solution was discarded after incubation, precooled PBS was added to stop cellular uptake, and cell monolayers were quickly washed for three times. […] A cell suspension was dissolved with methanol and centrifuged at 15,000 rpm for 20 min, then a supernatant was taken, and the content of C3G was determined with HPLC.

[4] = system: Caco-2 cells; test: CCK-8 cytotoxicity test, viability of Caco-2 cells; type: cell-based; conditions: Caco-2, 24 h, 0.2 mg/mL and below (P>0.05)
Method: Cytotoxicity tests: according to manufacturer's instructions, cell viability was determined with a CCK-8 (Nanjing Jiancheng Biological Engineering Research Institute, Nanjing, China). In short, Caco-2 cells were treated with [MUT] liposomes at concentrations of 0.1 mg/mL, 0.2 mg/mL, 0.3 mg/mL, and 0.4 mg/mL, incubated for 24 h, then washed with PBS once, and added with a CCK-8 solution. Incubation was performed at 37° C. for 4 h, and an optical density at 450 nm was determined. […] NL and [MUT] on the viability of Caco-2 cells were inspected with a CCK-8 method. The Caco-2 cells were inoculated onto a 96-well plate having each well of 100 μL at a density of 1×10^5 cells/mL, and 200 μL of PBS was added to a peripheral well of the 96-well plate, to provide a humidity environment. […] After incubation for 24 h, 20 μL of a CCK-8 solution was added to each well, incubation was performed in an incubator at 37° C. for 1 h, and then an optical density (OD) at a wavelength of 490 nm was detected with a microplate reader and was calculated according to the following formula: Cell viability (%)=ODtreatment well/ODcontrol well×100% where the ODtreatment well represented an optical density of cells after addition of drugs, and the ODcontrol well represented an optical density of cells in a blank control.

[5] = system: inflammatory factors IL-6, IL-8, IL-1β, and TNF-α; test: Content of inflammatory factors in LPS-induced Caco-2/RAW-264.7 co-culture model (ELISA); type: cell-based
Method: as §1
Determination of the content of inflammatory factors in a co-culture model: levels of inflammatory factors IL-6, IL-8, IL-1β, and TNF-α in a supernatant of Caco-2 cells in an LPS-induced co-culture model were determined with an ELISA kit.

[6] = system: Caco-2 cells; test: Effect of an endocytosis inhibitor on uptake/transport in a co-culture model; type: in vitro ADME; conditions: β-CD, chlorpromazine (CPZ), cytochalasin D (P>0.05)
Method: as §1
Effect of an endocytosis inhibitor on uptake in a co-culture model: 0.2 mg/mL of a C3G and C3G NL solution was prepared with an HBSS, 0.1 ml of a sample solution was added on an AP side, 0.6 mL of an HBSS was added on a BL side, an MEM, 10 mmol/L ([…]) of β-CD,10 μg/mL of chlorpromazine, 2 μmol/L (1 μg/ml) of cytochalasin D (0.1 ml) were added and sucked out after 30 min, cells were cultured in an environment at 37° C. for 1 h, three wells were provided, a culture medium was discarded after culture, and uptake was stopped using an HBSS. The content of a sample was determined with HPLC, and Papp was calculated.

[7] = system: Caco-2 cells; test: Effect of temperature on uptake in a co-culture model; type: in vitro ADME; conditions: 4° C. to 37° C. (P<0.0001)
Method: as §1
Effect of temperature on uptake in a co-culture model: 0.2 mg/mL of a C3G and C3G NL solution was prepared with an HBSS, 0.1 ml of a sample solution was added on an AP side, 0.6 mL of an HBSS was added on an BL side, cells were cultured in environments at 37° C. and 4° C. for 2 h, three wells were provided at each temperature, a culture medium was discarded after culture, and uptake was stopped using an HBSS. The content of a sample on the BL side was determined with HPLC.

Row | Papp (apparent permeability coefficient) [1] | time of maximum uptake amount in Caco-2 cells [3] | transport amounts after addition of endocytosis inhibitor compared with blank group [6] | uptake amounts in Caco-2 cells with increase of temperature [7] | Compound | transport amounts in Caco-2 cells with concentration [2] | change of cell viability compared with blank group [4] | production of inflammatory factors after pretreatment [5]
1 | 0.0303 ×10⁻⁶ cm/s |  |  |  | Lucifer yellow |  |  | 
2 |  | 2 h | no significant changes | increased significantly | OC[C@H]1O[C@@H](Oc2cc3c(O)cc(O)cc3[o+]c2-c2ccc(O)c(O)c2)[C@H](O)[C@@H](O)[C@@H]1O [C3G, Cyanidin-3-glucoside] | increased with the increase of concentration | did not change significantly | reduced in a dose-dependent manner
